In patent publication US9695155B2, “Herbicidal substituted pyrimidinyloxy benzene compounds” (E. I. DU PONT DE NEMOURS AND COMPANY, priority 2013, dated 2017):

How the values were obtained:
[1] = tested on: barnyardgrass; test: Test A preemergence; type: in vivo, Echinochloa crus-galli; details: for Barnyardgrass plant response rating: 500 g ai/ha, approx. 10 days
Method in brief: (§1)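 Injury scores run from 0, no effect, to 100, complete control, judged by eye against untreated plants roughly 10 days after treatment. Chemicals carried a surfactant in a non-phytotoxic solvent and went onto loam–sand soil preemergence or onto one- to two-leaf seedlings postemergence.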

[2] = tested on: giant foxtail; test: Test A preemergence; type: in vivo, Setaria faberii; details: for Plant response rating, Foxtail, Giant: 125 g ai/ha, 0 to 100 scale where 0 is no effect and 100 is complete control; for Foxtail, Giant plant response rating: 0 to 100 scale, 0 no effect, 100 complete control, approx. 10 days
Method in brief: as §1

[3] = tested on: velvetleaf; test: Test A preemergence; type: in vivo, Abutilon theophrasti; details: for Plant response rating, Velvetleaf: 125 g ai/ha, 0 to 100 scale where 0 is no effect and 100 is complete control; for Velvetleaf plant response rating: 0 to 100 scale, 0 no effect, 100 complete control, approx. 10 days
Method in brief: as §1

[4] = tested on: blackgrass; test: Test C postemergence; type: in vivo, Alopecurus myosuroides; details: for Plant response rating, Blackgrass: Postemergence
Method in brief: (§2)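 Whole-plant greenhouse test with surfactant-containing solvent formulation, applied preemergence to sown loam–sand pots or postemergence to 2–18 cm plants. Scored by eye 13 to 15 days on, 0–100 scale.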

[5] = tested on: Italian ryegrass; test: Test C postemergence; type: in vivo, Lolium multiflorum; details: for Plant response rating (0 to 100), Ryegrass, Italian: postemergence; for Plant response rating, Ryegrass, Italian: Postemergence, scale 0 to 100 (0 no effect, 100 complete control)
Method in brief: as §2

[6] = tested on: corn; test: Test C postemergence; type: in vivo, Zea mays; details: for Plant response rating, Corn: Postemergence
Method in brief: as §2

[7] = tested on: lambsquarters; test: Test C postemergence; type: in vivo, Chenopodium album; details: for Plant response rating (0 to 100), Lambsquarters: postemergence; for Plant response rating, Lambsquarters: Postemergence, scale 0 to 100 (0 no effect, 100 complete control)
Method in brief: as §2

[8] = tested on: pigweed; test: Test C postemergence; type: in vivo, Amaranthus retroflexus; details: for Plant response rating (0 to 100), Pigweed: postemergence; for Plant response rating, Pigweed: Postemergence, scale 0 to 100 (0 no effect, 100 complete control)
Method in brief: as §2

[9] = tested on: barnyardgrass; test: Test C postemergence; type: in vivo, Echinochloa crus-galli; details: for Plant response rating, Barnyardgrass: Postemergence
Excerpt: Seeds of plant species selected from blackgrass (Alopecurus myosuroides), Italian ryegrass (Lolium multiflorum), wheat, winter (winter wheat, Triticum aestivum), galium (catchweed bedstraw, Galium aparine), corn (Zea mays), large (Lg) crabgrass (Digitaria sanguinalis), giant foxtail (Setaria faberii), johnsongrass (Sorghum halepense), lambsquarters (Chenopodium album), morningglory (Ipomoea coccinea), yellow nutsedge (Cyperus esculentus), pigweed (Amaranthus retroflexus), ragweed (common ragweed, Ambrosia elatior), soybean (Glycine max), barnyardgrass (Echinochloa crus-galli), oilseed rape (Brassica napus), waterhemp (common waterhemp, Amaranthus rudis), kochia (Kochia scoparia), wild oat (Avena fatua), surinam grass (Brachiaria decumbens), foxtail, green (green foxtail, Setaria viridis), goosegrass (Eleusine indica), bromegrass, downy (downy bromegrass, Bromus tectorum), nightshade (eastern black nightshade, Solanum ptycanthum), cocklebur (common cocklebur, Xanthium strumarium), cupgrass, woolly (woolly cupgrass, Eriochloa villosa), bermudagrass (Cynodon dactylon), sunflower, (common oilseed sunflower, Helianthus annuus), Russian thistle (Salsola kali), and velvetleaf (Abutilon theophrasti) were planted into a blend of loam soil and sand and treated preemergence with test chemicals formulated in a non-phytotoxic solvent mixture which included a surfactant.
At the same time, plants selected from these crop and weed species and also barley, winter (winter barley, Hordeum vulgare), windgrass (Apera spica-venti), chickweed (common chickweed, Stellaria media), deadnettle (henbit deadnettle, Lamium amplexicaule), and canarygrass (littleseed canarygrass, Phalaris minor) were planted in pots containing Redi-Earth® planting medium (Scotts Company, 14111 Scottslawn Road, Marysville, Ohio 43041) comprising spaghnum peat moss, vermiculite, wetting agent and starter nutrients and treated with postemergence applications of test chemicals formulated in the same manner. Plants ranged in height from 2 to 18 cm (1- to 4-leaf stage) for postemergence treatments. Treated plants and controls were maintained in a greenhouse for 13 to 15 days, after which time all species were compared to controls and visually evaluated. Plant response ratings, summarized in Table C, are based on a scale of 0 to 100 where 0 is no effect and 100 is complete control. A dash (-) response means no test result.

[10] = tested on: waterhemp; test: Test C postemergence; type: in vivo, Amaranthus rudis; details: for Plant response rating (0 to 100), Waterhemp: postemergence; for Plant response rating, Waterhemp: Postemergence, scale 0 to 100 (0 no effect, 100 complete control)
Method in brief: as §2

[11] = 125 g ai/ha, 0 to 100 scale where 0 is no effect and 100 is complete control
[12] = 0 to 100 scale, 0 no effect, 100 complete control
[13] = 31 g ai/ha, scale 0 to 100 (0 no effect, 100 complete control), 13 to 15 days
[14] = 62 g ai/ha, scale 0 to 100 (0 no effect, 100 complete control)
[15] = 1000 g ai/ha, 0 to 100 scale, 0 no effect, 100 complete control
[16] = 16 g ai/ha, postemergence, visual rating, scale 0 to 100 (0 no effect, 100 complete control), 13 to 15 days
[17] = 4 g ai/ha, postemergence, 0 is no effect, 100 is complete control
[18] = 8 g ai/ha, postemergence, 0 is no effect, 100 is complete control
[19] = 16 g ai/ha, postemergence, 0 is no effect, 100 is complete control
[20] = 8 g ai/ha, 0 is no effect, 100 is complete control
[21] = 16 g ai/ha, 0 is no effect, 100 is complete control

| SMILES | Plant response rating (0 to 100), Blackgrass ([4]; 125 g ai/ha, postemergence) | Plant response rating, Blackgrass [4, 13] | Plant response rating, Blackgrass [4, 14] | Plant response rating (0 to 100), Ryegrass, Italian ([5]; 125 g ai/ha) | Plant response rating, Ryegrass, Italian ([5]; 31 g ai/ha, 13 to 15 days) | Plant response rating, Ryegrass, Italian ([5]; 62 g ai/ha) | Plant response rating (0 to 100), Corn ([6]; 125 g ai/ha, postemergence) | Plant response rating, Corn [6, 13] | Plant response rating, Corn [6, 14] | Plant response rating (0 to 100), Lambsquarters ([7]; 125 g ai/ha) | Plant response rating, Lambsquarters ([7]; 31 g ai/ha, 13 to 15 days) | Plant response rating, Lambsquarters ([7]; 62 g ai/ha) | Plant response rating (0 to 100), Pigweed ([8]; 125 g ai/ha) | Plant response rating, Pigweed ([8]; 31 g ai/ha, 13 to 15 days) | Plant response rating, Pigweed ([8]; 62 g ai/ha) | Plant response rating (0 to 100), Barnyardgrass ([9]; 125 g ai/ha, postemergence) | Plant response rating, Barnyardgrass [9, 13] | Plant response rating, Barnyardgrass [9, 14] | Plant response rating (0 to 100), Waterhemp ([10]; 125 g ai/ha) | Plant response rating, Waterhemp ([10]; 31 g ai/ha, 13 to 15 days) | other results |
| --- | --- | --- | --- | --- | --- | --- | --- | --- | --- | --- | --- | --- | --- | --- | --- | --- | --- | --- | --- | --- | --- |
| N#Cc1cccc(Oc2ncc(F)cn2)c1-n1cc(Br)cn1 [Compound 62] | 30 | 0 | 5 | 5 | 0 | 0 | 15 | 5 | 15 | 85 | 60 | 60 | 75 | 50 | 65 | 5 | 0 | 5 | 75 | 40 | Plant response rating, Barnyardgrass [1, 11]: 60; Barnyardgrass plant response rating [1, 12]: 100; Plant response rating, Foxtail, Giant [2]: 90; Foxtail, Giant plant response rating ([2]; 500 g ai/ha): 100; Plant response rating, Velvetleaf [3]: 50; Velvetleaf plant response rating ([3]; 500 g ai/ha): 100; Plant response rating (0 to 100), Blackgrass ([4]; 250 g ai/ha, postemergence): 50; Plant response rating (0 to 100), Ryegrass, Italian ([5]; 250 g ai/ha): 15; Plant response rating (0 to 100), Corn ([6]; 250 g ai/ha, postemergence): 20; Plant response rating (0 to 100), Lambsquarters ([7]; 250 g ai/ha): 90; Plant response rating (0 to 100), Pigweed ([8]; 250 g ai/ha): 80; Plant response rating (0 to 100), Barnyardgrass ([9]; 250 g ai/ha, postemergence): 10; Plant response rating (0 to 100), Waterhemp ([10]; 250 g ai/ha): 75; Plant response rating, Waterhemp ([10]; 62 g ai/ha): 60 |
| Clc1cnc(Oc2cccc(Br)c2-n2cc(Br)cn2)nc1 [Compound 65] | 15 | 10 | 40 | 5 | 0 | 0 | 10 | 10 | 10 | 90 | 80 | 75 | 98 | 90 | 95 | 10 | 5 | 5 | 90 | 75 | Plant response rating, Barnyardgrass [1, 15]: 100; Foxtail, Giant plant response rating ([2]; 1000 g ai/ha): 100; Velvetleaf plant response rating ([3]; 1000 g ai/ha): 100; Blackgrass plant response rating [4, 16]: 0; Corn plant response rating [6, 16]: 5; Barnyardgrass plant response rating [9, 16]: 5; Plant response rating, Waterhemp ([10]; 62 g ai/ha): 95 |
| N#Cc1cccc(Oc2ncc(Cl)cn2)c1-n1cnc(Br)c1 [Compound 74] | 0 | 0 | 0 | 0 | 0 | 0 | 15 | 10 | 10 | 75 | 40 | 75 | 65 | 40 | 60 | 5 | 0 | 5 | 60 | 35 | Plant response rating, Barnyardgrass [1, 11]: 70; Barnyardgrass plant response rating [1, 12]: 100; Plant response rating, Foxtail, Giant [2]: 90; Foxtail, Giant plant response rating ([2]; 500 g ai/ha): 100; Plant response rating, Velvetleaf [3]: 70; Velvetleaf plant response rating ([3]; 500 g ai/ha): 100; Plant response rating (0 to 100), Blackgrass ([4]; 250 g ai/ha, postemergence): 5; Plant response rating (0 to 100), Ryegrass, Italian ([5]; 250 g ai/ha): 5; Plant response rating (0 to 100), Corn ([6]; 250 g ai/ha, postemergence): 20; Plant response rating (0 to 100), Lambsquarters ([7]; 250 g ai/ha): 85; Plant response rating (0 to 100), Pigweed ([8]; 250 g ai/ha): 80; Plant response rating (0 to 100), Barnyardgrass ([9]; 250 g ai/ha, postemergence): 15; Plant response rating (0 to 100), Waterhemp ([10]; 250 g ai/ha): 80; Plant response rating, Waterhemp ([10]; 62 g ai/ha): 60 |
| CC(=NO)c1cn(-c2c(Br)cccc2Oc2ncc(Cl)cn2)nn1 [Compound 115] | – | 5 | – | – | – | – | – | – | – | – | – | – | – | – | – | – | 5 | – | – | – | Plant response rating, Barnyardgrass [1, 15]: 100; Foxtail, Giant plant response rating ([2]; 1000 g ai/ha): 100; Velvetleaf plant response rating ([3]; 1000 g ai/ha): 100; Plant response rating (0 to 100), Blackgrass [4, 17]: 0; Plant response rating (0 to 100), Blackgrass [4, 18]: 0; Plant response rating (0 to 100), Blackgrass [4, 19]: 0; Plant response rating (0 to 100), Ryegrass, Italian [5, 20]: 0; Plant response rating (0 to 100), Ryegrass, Italian [5, 21]: 0; Plant response rating (0 to 100), Corn [6, 17]: 5; Plant response rating (0 to 100), Corn [6, 18]: 10; Plant response rating (0 to 100), Corn [6, 19]: 5; Plant response rating (0 to 100), Lambsquarters [7, 20]: 10; Plant response rating (0 to 100), Lambsquarters [7, 21]: 10; Plant response rating (0 to 100), Pigweed [8, 20]: 15; Plant response rating (0 to 100), Pigweed [8, 21]: 50; Plant response rating (0 to 100), Barnyardgrass [9, 17]: 0; Plant response rating (0 to 100), Barnyardgrass [9, 18]: 0; Plant response rating (0 to 100), Barnyardgrass [9, 19]: 0; Plant response rating (0 to 100), Waterhemp [10, 20]: 5; Plant response rating (0 to 100), Waterhemp [10, 21]: 30 |
